The source made the active and inactive calls.
How the values were obtained:
Type in all cases: functional, organism-based
[1] = tested on: Staphylococcus aureus; assay: Antimicrobial activity against methicillin-resistant Staphylococcus aureus ATCC 43300
[2] = tested on: Cryptococcus neoformans; assay: Antimicrobial activity against Cryptococcus neoformans ATCC 90113
[3] = tested on: Escherichia coli; assay: Antimicrobial activity against Escherichia coli ATCC 35218
[4] = tested on: Pseudomonas aeruginosa; assay: Antimicrobial activity against Pseudomonas aeruginosa ATCC 27853
[5] = tested on: Aspergillus fumigatus; assay: Antimicrobial activity against Aspergillus fumigatus ATCC 90906
[6] = tested on: Mycobacterium intracellulare; assay: Antimicrobial activity against Mycobacterium intracellulare ATCC 23068
[7] = tested on: Candida albicans; assay: Antimicrobial activity against Candida albicans ATCC 90028
[8] = tested on: Plasmodium falciparum; assay: Antimalarial activity against chloroquine-resistant Plasmodium falciparum W2
[9] = tested on: Plasmodium falciparum; assay: Antimalarial activity against chloroquine-sensitive Plasmodium falciparum D6

Measured: Activity

C=C1C[C@@]23CC[C@H]4[C@@](C)(CCC[C@@]4(C)C(=O)O)[C@@H]2CC[C@]1(O[C@@H]1O[C@@H](CO)[C@@H](O[C@@H]2O[C@@H](CO)[C@@H](O)[C@H](O)[C@@H]2O)[C@H](O)[C@@H]1O[C@@H]1O[C@@H](CO)[C@@H](O)[C@H](O)[C@@H]1O)C3
not listed: [8] | [9]
inactive: all other assays above

C=C1C[C@@]23CC[C@H]4[C@@](C)(CCC[C@@]4(C)C(=O)O[C@@H]4O[C@H](CO)[C@@H](O)[C@H](O)[C@H]4O)[C@@H]2CC[C@]1(O[C@@H]1O[C@H](C)[C@@H](O)[C@H](O)[C@@H]1O[C@@H]1O[C@H](CO)[C@@H](O)[C@H](O[C@@H]2O[C@H](CO)[C@@H](O)[C@H](O)[C@H]2O)[C@H]1O)C3
not listed: [8] | [9]
inactive: all other assays above

C=C1C[C@@]23CC[C@H]4[C@@](C)(CCC[C@@]4(C)C(=O)O[C@@H]4O[C@H](CO)[C@@H](O)[C@H](O)[C@H]4O[C@@H]4O[C@H](CO)[C@@H](O)[C@H](O)[C@H]4O)[C@@H]2CC[C@]1(O[C@@H]1O[C@H](CO)[C@@H](O)[C@H](O[C@@H]2O[C@H](CO)[C@@H](O)[C@H](O)[C@H]2O)[C@H]1O[C@@H]1O[C@H](CO)[C@@H](O)[C@H](O)[C@H]1O)C3
not listed: [8] | [9]
inactive: all other assays above

C=C1C[C@@]23CC[C@H]4[C@@](C)(CCC[C@@]4(C)C(=O)O[C@@H]4O[C@H](CO)[C@@H](O)[C@H](O)[C@H]4O)[C@@H]2CC[C@]1(O[C@@H]1O[C@H](CO)[C@@H](O)[C@H](O)[C@H]1O[C@@H]1O[C@H](CO)[C@@H](O)[C@H](O)[C@H]1O)C3
inactive: all assays above

C=C1C[C@@]23CC[C@H]4[C@@](C)(CCC[C@@]4(C)C(=O)O[C@@H]4O[C@H](CO)[C@@H](O)[C@H](O)[C@H]4O)[C@@H]2CC[C@]1(O[C@@H]1O[C@H](CO)[C@@H](O)[C@H](O)[C@H]1O[C@@H]1O[C@H](CO)[C@@H](O)[C@H](O[C@@H]2O[C@H](CO)[C@@H](O)[C@H](O)[C@H]2O)[C@H]1O)C3
not listed: [8] | [9]
inactive: all other assays above

C=C1C[C@@]23CC[C@H]4[C@@](C)(CCC[C@@]4(C)C(=O)O[C@@H]4O[C@H](CO)[C@@H](O)[C@H](O)[C@H]4O)[C@@H]2CC[C@]1(O[C@@H]1O[C@H](C)[C@@H](O)[C@H](O)[C@@H]1O[C@@H]1O[C@H](CO)[C@@H](O)[C@H](O)[C@H]1O)C3
not listed: [8] | [9]
inactive: all other assays above

C=C1C[C@@]23CC[C@H]4[C@@](C)(CCC[C@@]4(C)C(=O)O[C@@H]4O[C@H](CO)[C@@H](O)[C@H](O)[C@H]4O)[C@@H]2CC[C@]1(O[C@@H]1O[C@H](CO)[C@@H](O)[C@H](O[C@@H]2OC[C@@H](O)[C@H](O)[C@H]2O)[C@H]1O[C@@H]1O[C@H](CO)[C@@H](O)[C@H](O)[C@H]1O)C3
not listed: [8] | [9]
inactive: all other assays above

C=C1C[C@@]23CC[C@H]4[C@@](C)(CCC[C@@]4(C)C(=O)O[C@@H]4O[C@H](CO)[C@@H](O)[C@H](O)[C@H]4O[C@@H]4O[C@H](CO)[C@@H](O)[C@H](O)[C@H]4O)[C@@H]2CC[C@]1(O[C@@H]1O[C@H](CO)[C@@H](O)[C@H](O)[C@H]1O)C3
inactive: all assays above

Source: ChEMBL document CHEMBL3286183, “Minor diterpene glycosides from the leaves of Stevia rebaudiana” (J Nat Prod, 2014)
